# Patent US20070275985A1, “Triazolopyrimidines” (Bayer Cropscience Aktiengesellschaft, priority 2003, published 2007)
# Where two headings read alike, the source gives them in different places.
# Columns and labels:
# [1] = logP determination by HPLC (EEC-Directive 79/831 Annex V. A8, gradient method); format: physicochemical; conditions: for logP: gradient method, acetonitrile/0.1% aqueous phosphoric acid; for chromatographic logP: value printed in preparation example text, read-out: HPLC: log P
# [2] = system: Erysiphe graminis f sp. tritici; assay: Erysiphe test (wheat)/protective; format: in vivo; conditions: protective, 500 g/ha, assessment 7 days after inoculation
# Text: [table] One part by weight of active substance is mixed with the specified quantities of solvent and emulsifier and the concentrate diluted with water to the desired concentration to prepare a suitable active substance preparation. To test the protective efficiency, young plants are sprayed with the active substance preparation in the specified amount. After drying the spray coating, the plants are dusted with spores of Erysiphe graminis f sp. tritici. The plants are then placed in a glasshouse at a temperature of about 20° C. and a relative humidity of about 80% to promote the development of mildew pustules. The assessment is made 7 days after the inoculation. In this situation 0% means an efficiency corresponding to that of the control whereas an efficiency of 100% means that no attack is observed.
SMILES,logP [1],also measured
CC(C)C(C)Nc1c(-c2ncc(C(F)(F)F)cc2F)c(Cl)nc2ncnn12 (stereo not shown) [Example 7],3.13,–
CC(C)CNc1c(-c2ncc(C(F)(F)F)cc2F)c(Cl)nc2ncnn12 [Example 3],2.85,–
"C[C@H](Nc1c(-c2ncncc2Cl)c(Cl)nc2ncnn12)C(F)(F)F [Example 2, N-[5-chloro-6-(5-chloro-4-pyrimidinyl)[1,2,4]triazolo[1,5-a]pyrimidin-7-yl]-N-[(1S)-2,2,2-trifluoro-1-methylethyl]amine]",–,"chromatographic logP ([1]; HPLC (gradient method, EEC-Directive 79/831 Annex V. A8)): 1.98; efficiency [2]: higher than 90%"
"C[C@H](Nc1c(-c2ncccc2C(F)(F)F)c(Cl)nc2ncnn12)C(F)(F)F [Example 1, N-{5-chloro-6-[3-(trifluoromethyl)-2-pyridinyl][1,2,4]triazolo[1,5-a]pyrimidin-7-yl}-N-[(1 S)-2,2,2-trifluor-1-methylethyl]amine]",–,chromatographic logP [1]: 2.22
CC(C)C(C)Nc1c(-c2ncncc2Cl)c(Cl)nc2ncnn12 (stereo not shown) [Example 13],2.16,–
C=C(C)CN(CC)c1c(-c2ncc(C(F)(F)F)cc2F)c(Cl)nc2ncnn12 [Example 4],3.51,–

# The next lines start with results.
logP [1],SMILES,also measured
2.91,CC(Nc1c(-c2ncc(C(F)(F)F)cc2F)c(Cl)nc2ncnn12)C(F)(F)F (stereo not shown) [Example 6],–
1.98,C[C@@H](Nc1c(-c2ncncc2Cl)c(Cl)nc2ncnn12)C(F)(F)F [Example 8],–
2.53,CC(C)C(C)Nc1c(-c2ncccc2C(F)(F)F)c(Cl)nc2ncnn12 (stereo not shown) [Example 11],–
